# Assays:
# [1] = Fluorometry characterization of DOX and CD affinity (β-CD); assay type: binding; conditions: cell culture medium, 37° C.
# Experimental: (§1) When DOX, a fluorescent compound, forms an inclusion complex with CD, the fluorescent signal is enhanced (1) due to diminished intermolecular quenching. Increasing the amount of β- and γ-CD monomers (0 mM-16 mM) were added to a constant concentration of DOX in cell culture medium at 37° C. (n=3). Aliquots were taken for fluorescence measurements (Synergy H1) with an excitation and emission wavelength of 498 nm and 590 nm, respectively. Based on a modified Benesi-Hildebrand equation, nonlinear regression analysis was performed in MATLAB to estimate the association constants (Ka).
# [2] = Fluorometry characterization of DOX and CD affinity (γ-CD); assay type: binding; conditions: cell culture medium, 37° C.
# Experimental: as §1
# [3] = Surface plasmon resonance affinity between DOX and β-CD; assay type: binding; conditions: HBS-N buffer pH 7.4
# Experimental: (§2) Surface plasmon resonance (SPR) spectroscopy was performed on Biacore ×100 to characterize the affinity between DOX and β- and γ-CD. 6-NH2-β- and γ-CD monomers were immobilized onto CM5 sensor chips using amine-coupling chemistry. To optimize immobilization conditions, pH scouting was performed via suspending 0.1 mM of 6-NH2-β- and γ-CD monomers in various pH buffers (borate 8.5, HBS-N 7.4, PBS 7.4, acetate 5) and injecting the suspensions over the sensor chip surface. The carboxylic groups on the sensor chip surface were activated via n injection of 0.4 M EDC/0.1 M NHS. Surface immobilization in flow cell 2 proceeded with an injection of 0.1 mM of 6-amino-6-deoxy-β- or γ-CD monomers suspended in the previously determined optimal buffer, borate 8.5. Blank immobilization was performed in flow cell 1, which was used as a reference flow cell. Finally, unreacted reaction sites in both flow cells were inactivated by an injection of 1 M ethanolamine (pH 8.5). All injections were performed at […] for 7 min.
# (§3) Injections of 50 mM sodium hydroxide was used to wash off any bound DOX and regenerate the sensor chip surface in between sample injections. Successful regeneration was confirmed by examining the baseline signal prior to each injection and that after regeneration. […]
# [4] = Surface plasmon resonance affinity between DOX and γ-CD; assay type: binding; conditions: HBS-N buffer pH 7.4
# Experimental: as §2, §3
# U-87 MG cells = test: Cytotoxicity of DOX against U-87 MG cells; assay type: cell-based, human; conditions: 2 μM of DOX
# Experimental: After another 24 hr incubation, 20 μl of a 5 mg/ml MTT solution was added to each well. The cells were incubated for 3 hr and the medium was then replaced by 200 μl of DMSO. After 30 min incubation, the plate was read using Synergy H1 with an absorbance wavelength of 590 nm. The results were normalized to readings from a set of wells with cells treated with no DOX, which represented 100% survival. Percent cell death was defined as 1-percent survival.
# A similar procedure was used when testing the cytoxicity of DOX against U-87 MG, a human glioblastoma cell line. However, instead of previously collected DOX solution, DOX solutions at desired concentrations were made fresh for this assay.
smiles,measurement,setting,value
"COc1cccc2c1C(=O)c1c(O)c3c(c(O)c1C2=O)C[C@@](O)(C(=O)CO)C[C@@H]3O[C@H]1C[C@H](N)[C@H](O)[C@H](C)O1 [DOX, doxorubicin]",Association Constant Ka β-CD · DOX,[1],153 ± 15 M⁻¹
same,Association Constant Ka γ-CD · DOX,[2],264 ± 20 M⁻¹
same,Association Constant Ka β-CD · DOX,[3],205 ± 5 M⁻¹
same,Association Constant Ka γ-CD · DOX,[4],490 ± 7 M⁻¹
same,U-87 MG cells killed,U-87 MG cells,~20%

# Reference: patent US9642920B2, “Therapeutic agent delivery system and method” (Case Western Reserve University, priority 2009, dated 2017)
